From patent US4665082A, “Cysteine delivery system” (Cornell Research Foundation, priority 1985, dated 1987)
“Also recorded” adds a separate entry of the source. Blank lines part the entries; values can stand above or below the molecule they belong to.

How the values were obtained:
hepatic glutathione = assay: Hepatic glutathione level after injection; type: in vivo, mice; conditions: for level of hepatic glutathione relative to controls: mice fasted overnight, intraperitoneal injection (Na salt, 6.5 mmol/kilo; D-isomer equivalent doses)
Procedure: The effect of injecting mice with L-2-oxothiazolidine-4-carboxylate on the level of hepatic glutathione was studied. […] The maximal effect was observed about 4 hours after injection. […] These findings are indicative of in vivo formation of cysteine after administration of L-2-oxothiazolidine-4-carboxylate.
Mice fastened overnight were injected intraperitoneally with NaCl (controls; dashed line) or with Na L-2-oxothiazolidine-4-carboxylate (6.5 mmol/kilo). At intervals, the mice were sacrificed and the excised liver was homogenized in 5 volumes of 1% picric acid. After centrifugation, the protein-free supernatant solutions were analyzed for glutathione by the method of Tietze, Anal. Biochem 27, 502-22 (1969). Analyses were carried out in duplicate. In a number of instances, these values were checked by the 2-vinylpyridine procedure of Griffith, Anal. Biochem. 106; 207-12 (1980); good agreement between the two methods was observed. In the figure, the points are mean values and the bars indicate the average deviation from the mean. The numbers in parentheses give the number of animals used. The value for the controls was 4.40±0.9 umol/g.

5-oxo-L-prolinase [1] = molecular target: T1, 5-oxo-L-prolinase (Rattus norvegicus, UniProt P97608); assay: Action of 5-oxo-L-prolinase on substrates (formation of ADP and amino acid); type: biochemical; conditions: for Reaction with the enzyme in the presence of ATP (formation of ADP and cysteine): incubation with 5-oxo-L-prolinase and ATP, FIG. 2: 5 mM substrate
T1 construct: 5-Oxo-L-prolinase was isolated from rat kidney and freed of 5-oxoproline by gel filtration; from tissue; host or cells: rat kidney
T1 sequence (P97608 1-1288): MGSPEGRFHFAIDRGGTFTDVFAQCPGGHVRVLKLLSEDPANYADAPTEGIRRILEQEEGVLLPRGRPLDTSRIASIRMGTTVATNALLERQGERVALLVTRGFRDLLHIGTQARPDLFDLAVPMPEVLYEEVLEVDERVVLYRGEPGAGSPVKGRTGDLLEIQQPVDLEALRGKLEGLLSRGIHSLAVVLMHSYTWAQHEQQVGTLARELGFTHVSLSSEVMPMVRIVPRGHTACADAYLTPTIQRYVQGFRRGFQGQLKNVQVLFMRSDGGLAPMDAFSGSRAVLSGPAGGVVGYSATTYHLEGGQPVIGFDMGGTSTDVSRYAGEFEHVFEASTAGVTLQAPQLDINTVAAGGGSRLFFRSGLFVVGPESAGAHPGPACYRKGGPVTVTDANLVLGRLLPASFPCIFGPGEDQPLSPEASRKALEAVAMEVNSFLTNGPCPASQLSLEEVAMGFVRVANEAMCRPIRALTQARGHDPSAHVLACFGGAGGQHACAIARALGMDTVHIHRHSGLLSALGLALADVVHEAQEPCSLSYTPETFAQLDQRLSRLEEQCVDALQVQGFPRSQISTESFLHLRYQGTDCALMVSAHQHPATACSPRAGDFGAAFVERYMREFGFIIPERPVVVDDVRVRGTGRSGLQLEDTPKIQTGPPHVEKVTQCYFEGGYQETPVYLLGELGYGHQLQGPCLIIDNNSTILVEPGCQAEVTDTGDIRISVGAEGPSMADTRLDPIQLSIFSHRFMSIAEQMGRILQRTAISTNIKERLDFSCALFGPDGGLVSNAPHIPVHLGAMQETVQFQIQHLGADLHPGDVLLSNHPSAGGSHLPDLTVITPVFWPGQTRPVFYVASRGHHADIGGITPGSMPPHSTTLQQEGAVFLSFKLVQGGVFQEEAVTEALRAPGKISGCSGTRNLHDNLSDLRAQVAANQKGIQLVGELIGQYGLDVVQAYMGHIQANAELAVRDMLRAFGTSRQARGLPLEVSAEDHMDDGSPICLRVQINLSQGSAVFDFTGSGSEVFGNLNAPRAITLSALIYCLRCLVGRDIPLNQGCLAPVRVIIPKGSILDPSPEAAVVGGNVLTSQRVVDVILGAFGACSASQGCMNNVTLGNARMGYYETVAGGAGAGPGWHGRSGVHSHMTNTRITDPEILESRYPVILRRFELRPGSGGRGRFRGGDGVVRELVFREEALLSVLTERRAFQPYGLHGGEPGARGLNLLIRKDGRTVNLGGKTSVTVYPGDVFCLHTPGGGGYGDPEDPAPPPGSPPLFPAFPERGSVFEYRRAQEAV
Procedure: (§1) In the experiments the reaction mixtures were made up to contain (final volume 0.5 ml) 100 mM Na Hepes (Na salt of N-2-hydroxyethylpiperizine-N'-2ethanesulfonic acid) buffer (pH 8.0), 150 mM KCl, 8 mM MgCl2, 2 mM phosphoenolpyruvate, 5 mM ATP (adenosine triphosphate), pyruvate kinase, in excess, 20 micrograms of 5-oxoprolinase, and the substrate as indicated.
(§2) The L- and D-isomers of 2-oxothiazolidine-4-carboxylate were synthesized by the method set out in Kaneko et al, Bull, Chem. Soc. (Japan) vol. 37, pp. 242-4 (1964) as modified by the method of Shah et al, Cancer Research vol. 39, pp. 3942-7 (1979). 5-Oxo-L-prolinase was isolated from rat kidney and freed of 5-oxoproline by gel filtration. Other chemicals and materials were obtained commercially.
(§3) After incubation for 30 min. at 37° C., the reaction mixtures were treated with 0.1 volume of 1M HCl, and placed at 0° C. for 5 min.; and an equivalent volume of 1M 2-amino-2-hydroxylmethyl-1,3,-propanediol was added. Portions were analyzed for amino acids by use of a Durrum Model 500 amino acid analyzer. Cysteine was also determined in some experiments by reaction with 5,5'-dithiobis(2-nitrobenzoate (DTNB).
At the indicated intervals portions were analyzed for ADP by the method indicated in the Table footnote, and for cysteine by reaction with DTNB.

5-oxo-L-prolinase [2] = molecular target: T1, 5-oxo-L-prolinase; assay: Inhibition of utilization of 5-oxo-L-proline (glutamate formation) by the purified enzyme; type: biochemical; conditions: 1 mM 5-oxo-L-proline; under these conditions (1, 5, 10 mM)
Procedure: as §1, §2, §3
Energy for the reaction is supplied by the cleavage of ATP. […] The ratio of ADP to cysteine produced increased with time due undoubtedly to the loss of cysteine due to oxidation.

5-oxoproline metabolism = assay: In vivo metabolism of 5-oxo-L-[14C]proline (respiratory 14CO2, urinary radioactivity); parameters: species or system mice
Procedure: (§4) The in vitro results showing that L-2-oxothiazolidine-4-carboxylate inhibits utilization of 5-oxoproline were confirmed by in vivo experiments. In the latter, animals were injected with 5-oxo-L-[^14 C]proline and the respiratory [^14 CO2 ] produced was collected and measured for several hours. […] However, L-2-oxothiazolidine-4-carboxylate is a much more efficient inhibitor.
(§5) FIG. 3 depicts the inhibition of 5-oxoproline metabolism by L-2-oxothiazolidine-4-carboxylate. Mice fasted overnight were injected intraperitoneally with NaCl (Curve 1; open symbols; controls) or with Na L-2-oxothiazolidine-4-carboxylate (2.5 mmol/kilo) (Curve 2; closed symbols). After 10 min., the mice were injected subcutaneously with 5-oxo-L-[^14 C]proline (A) or with L-[^14 C]glutamate (B) (0.02 mmol; 1.1×10^6 cpm). The mice were then placed in metabolic chambers and the respiratory CO2 was collected in ethanolamine/methanol, 1:4 (vol/vol). In A, each curve represents the results on 3 animals; the points are mean values and the bars represent standard deviations from the mean. In B, each curve represents the average of closely-agreeing results obtained from 2 animals.

metabolism of glutamate = assay: In vivo metabolism of L-[14C]glutamate (respiratory 14CO2); conditions: mice, injection of L-[14C]glutamate
Procedure: as §4, §5

liver glutathione = assay: Liver glutathione in animals depleted of hepatic glutathione (acetoaminophenol); type: in vivo; conditions: mice depleted of hepatic glutathione, compound given even two hours after acetoaminophenol
Procedure: Administration of this compound therefore provides a way of getting cysteine into cells. One cannot give cysteine itself without complications since this amino acid is toxic extracellularly. However, when the L-oxothiazolidine compound is injected it enters the cell where it is split giving rise to cysteine within the cell. In a number of clinical situations, for example, after poisoning with excessive pain-killing drugs, e.g., those containing active ingredients known as N-acetyl-para-aminophenol, paracetamol, and acetaminophen, the liver glutathione levels decrease markedly. When cysteine is supplied to liver cells, additional glutathione can be synthesized and thus serve usefully in detoxifying the offending drug. Therefore, L-2-oxothiazolidine-4-carboxylate serves as an intracellular delivery system for cysteine and has potential as a therapeutic agent in situations in which there is depletion of liver glutathione. After acetoaminophenol is given to experimental animals such as mice, the liver glutathione declines rapidly because it is extensively utilized by reaction with the drug. […] For human treatment the L-isomer, preferably in the form of its neutral salt is administered directly into the gastro-intestinal tract or introduced intravenously.

[3] = substrate 2 mM, 30 min at 37° C.

Products Formed: Amino Acid (determined after reduction with KBH4 and reaction with iodoacetamide) (5-oxo-L-prolinase [1]; substrate 5 mM, footnote e: less than 20 nmol): 0 nmol
inhibition of glutamate formation (in words) (5-oxo-L-prolinase [2]): did not inhibit glutamate formation
SMILES: O=C1N[C@@H](C(=O)O)CS1 [D-2-oxothiazolidine-4-carboxylate]
level of hepatic glutathione relative to controls (hepatic glutathione): No such stimulation was observed
Reaction with the enzyme in the presence of ATP (formation of ADP and cysteine) (5-oxo-L-prolinase [1]; 5 mM ATP, listed as D-isomer): absence of reaction; also recorded: No reaction was observed

Products Formed: ADP (5-oxo-L-prolinase [1]; substrate 2 mM, 5 mM ATP, 20 micrograms enzyme, 30 min at 37° C., pH 8.0, pyruvate kinase-lactate dehydrogenase coupled assay): 930 nmol
Products Formed: Amino Acid (5-oxo-L-prolinase [1]; substrate 2 mM, footnote f: less than 5 nmol): 0 nmol
SMILES: O=C1NC[C@@H](C(=O)O)N1 [L-2-imidazolidone-4-carboxylate]

calculated Vmax value (5-oxo-L-prolinase [1]; natural substrate compared with the L-isomer): higher than that found for the L-isomer
SMILES: O=C1CC[C@@H](C(=O)O)N1 [5-Oxo-L-proline, 5-oxo-L-proline]

Reaction with the enzyme in the presence of ATP (formation of ADP and cysteine) (5-oxo-L-prolinase [1]; 5 mM ATP): rapid formation of ADP and cysteine
Products Formed: Amino Acid (after conversion to cystine) (5-oxo-L-prolinase [1]; [3]): 463 nmol
Products Formed: Amino Acid (determined after reduction with KBH4 and reaction with iodoacetamide) (5-oxo-L-prolinase [1]; [3]): 466 nmol
SMILES: O=C1N[C@H](C(=O)O)CS1 [L-2-oxothiazolidine-4-carboxylate]
injected dose (radioactivity) excreted in urine (5-oxoproline metabolism; animals treated with L-isomer and injected with 5-oxo-L-[14C]proline, none in urine of controls): about 16%
activity on a molar basis compared with L-2-imidazolidine-4-carboxylate (inhibition of 5-oxoproline metabolism in vivo) (5-oxoproline metabolism; in vivo comparison): at least four times more active
formation of [14CO2] from injected 5-oxo-L-[14C]proline (5-oxoproline metabolism; mice, Na salt 2.5 mmol/kilo intraperitoneally, 10 min before 5-oxo-L-[14C]proline s.c.): marked decrease
free cysteine in acid extracts of the livers (hepatic glutathione; amino acid analyses after reduction by dithiothreitol and derivatization with 2-vinylpyridine): No free cysteine was detected
level of hepatic glutathione relative to controls (hepatic glutathione): about twice those of the controls
effect on the metabolism of glutamate (metabolism of glutamate): does not have a significant effect
apparent Km value (5-oxo-L-prolinase [1]; compared with the natural substrate 5-oxo-L-proline): somewhat lower than that found for the natural substrate
liver glutathione after depletion (liver glutathione): restoration of normal hepatic glutathione levels
liver glutathione after depletion (liver glutathione; listed as L-isomer compound): an increase in liver glutathione occurs
